In patent publication US9809578B2, “Pyrazolyl urea, thiourea, guanidine and cyanoguanidine compounds as trkA kinase inhibitors” (Array BioPharma Inc., priority 2012, dated 2017):

Legend:
Type in all cases: biochemical
Conditions in all cases: 10 μM, ATP near Km
AKT1 = target: T1, AKT1 (Homo sapiens, UniProt P31749); assay: KinaseProfiler AKT1
T1 construct: purchased Millipore (KinaseProfiler service)
Description: (§1) The compound was run in duplicate at a concentration of ATP near the Km for each individual kinase according to Millipore's specifications.

Axl = target: T2, Axl (Homo sapiens, UniProt P30530); assay: KinaseProfiler Axl
T2 construct: purchased Millipore (KinaseProfiler service)
Description: as §1

BTK = target: T3, BTK (Homo sapiens, UniProt Q06187); assay: KinaseProfiler BTK
T3 construct: purchased Millipore (KinaseProfiler service)
Description: as §1

CAMK1d = target: T4, CAMK1d (Homo sapiens, UniProt Q8IU85); assay: KinaseProfiler CAMK1d
T4 construct: purchased Millipore (KinaseProfiler service)
Description: as §1

CAMK2g = target: T5, CAMK2g (Homo sapiens, UniProt Q13555); assay: KinaseProfiler CAMK2g
T5 construct: purchased Millipore (KinaseProfiler service)
Description: as §1

CDK5/p35 = target: T6, CDK5/p35 (Homo sapiens, UniProt Q00535); assay: KinaseProfiler CDK5/p35
T6 construct: purchased Millipore, Inc. (KinaseProfiler service)
Description: as §1

CDK7/cyclinH/MAT1 = target: T7, CDK7/cyclinH/MAT1 (Homo sapiens, UniProt P50613); assay: KinaseProfiler CDK7/cyclinH/MAT1
T7 construct: purchased Millipore, Inc. (KinaseProfiler service)
Description: as §1

CHK2 = target: T8, CHK2 (Homo sapiens, UniProt O96017); assay: KinaseProfiler CHK2
T8 construct: purchased Millipore, Inc. (KinaseProfiler service)
Description: as §1

CK1delta = target: T9, CK1delta (Homo sapiens, UniProt P48730); assay: KinaseProfiler CK1delta
T9 construct: purchased Millipore, Inc. (KinaseProfiler service)
Description: as §1

CSK = target: T10, CSK (Homo sapiens, UniProt P41240); assay: KinaseProfiler CSK
T10 construct: purchased Millipore, Inc. (KinaseProfiler service)
Description: as §1

DAPK3 = target: T11, DAPK3 (Homo sapiens, UniProt O43293); assay: KinaseProfiler DAPK3
T11 construct: purchased Millipore, Inc. (KinaseProfiler service)
Description: as §1

DYRK2 = target: T12, DYRK2 (Homo sapiens, UniProt Q92630); assay: KinaseProfiler DYRK2
T12 construct: purchased Millipore, Inc. (KinaseProfiler service)
Description: as §1

EphA7 = target: T13, EphA7 (Homo sapiens, UniProt Q15375); assay: KinaseProfiler EphA7
T13 construct: purchased Millipore, Inc. (KinaseProfiler service)
Description: as §1

EphA8 = target: T14, EphA8 (Homo sapiens, UniProt P29322); assay: KinaseProfiler EphA8
T14 construct: purchased Millipore, Inc. (KinaseProfiler service)
Description: as §1

EphB1 = target: T15, EphB1 (Homo sapiens, UniProt P54762); assay: KinaseProfiler EphB1
T15 construct: purchased Millipore, Inc. (KinaseProfiler service)
Description: as §1

ERK2 = target: T16, ERK2 (Homo sapiens, UniProt P28482); assay: KinaseProfiler ERK2
T16 construct: purchased Millipore, Inc. (KinaseProfiler service)
Description: as §1

FAK2 = target: T17, FAK2 (Homo sapiens, UniProt Q14289); assay: KinaseProfiler FAK2
T17 construct: purchased Millipore, Inc. (KinaseProfiler service)
Description: as §1

FGFR2 = target: T18, FGFR2 (Homo sapiens, UniProt P21802); assay: KinaseProfiler FGFR2
T18 construct: purchased Millipore, Inc. (KinaseProfiler service)
Description: as §1

FGFR3 = target: T19, FGFR3 (Homo sapiens, UniProt P22607); assay: KinaseProfiler FGFR3
T19 construct: purchased Millipore, Inc. (KinaseProfiler service)
Description: as §1

Flt3 = target: T20, Flt3 (Homo sapiens, UniProt P36888); assay: KinaseProfiler Flt3
T20 construct: purchased Millipore, Inc. (KinaseProfiler service)
Description: as §1

GSK3alpha = target: T21, GSK3alpha (Homo sapiens, UniProt P49840); assay: KinaseProfiler GSK3alpha
T21 construct: purchased Millipore, Inc. (KinaseProfiler service)
Description: as §1

Hck = target: T22, Hck (Homo sapiens, UniProt P08631); assay: KinaseProfiler Hck
T22 construct: purchased Millipore, Inc. (KinaseProfiler service)
Description: as §1

HIPK2 = target: T23, HIPK2 (Homo sapiens, UniProt Q9H2X6); assay: KinaseProfiler HIPK2
T23 construct: purchased Millipore, Inc. (KinaseProfiler service)
Description: as §1

HIPK3 = target: T24, HIPK3 (Homo sapiens, UniProt Q9H422); assay: KinaseProfiler HIPK3
T24 construct: purchased Millipore, Inc. (KinaseProfiler service)
Description: as §1

IGF-1R = target: T25, IGF-1R (Homo sapiens, UniProt P08069); assay: KinaseProfiler IGF-1R
T25 construct: purchased Millipore, Inc. (KinaseProfiler service)
Description: as §1

JNK1alpha1 = target: T26, JNK1alpha1 (Homo sapiens, UniProt P45983); assay: KinaseProfiler JNK1alpha1
T26 construct: purchased Millipore, Inc. (KinaseProfiler service)
Description: as §1

MAP3K5 = target: T27, MAP3K5 (Homo sapiens, UniProt Q99683); assay: KinaseProfiler MAP3K5
T27 construct: purchased Millipore, Inc. (KinaseProfiler service)
Description: as §1

MLK1 = target: T28, MLK1 (Homo sapiens, UniProt P80192); assay: KinaseProfiler MLK1
T28 construct: purchased Millipore, Inc. (KinaseProfiler service)
Description: as §1

MST2 = target: T29, MST2 (Homo sapiens, UniProt Q13188); assay: KinaseProfiler MST2
T29 construct: purchased Millipore, Inc. (KinaseProfiler service)
Description: as §1

mTOR = target: T30, mTOR (Homo sapiens, UniProt P42345); assay: KinaseProfiler mTOR
T30 construct: purchased Millipore, Inc. (KinaseProfiler service)
Description: as §1

MuSK = target: T31, MuSK (Homo sapiens, UniProt O15146); assay: KinaseProfiler MuSK
T31 construct: purchased Millipore, Inc. (KinaseProfiler service)
Description: as §1

PDGFRalpha = target: T32, PDGFRalpha (Homo sapiens, UniProt P16234); assay: KinaseProfiler PDGFRalpha
T32 construct: purchased Millipore, Inc. (KinaseProfiler service)
Description: as §1

Pim-1 = target: T33, Pim-1 (Homo sapiens, UniProt P11309); assay: KinaseProfiler Pim-1
T33 construct: purchased Millipore, Inc. (KinaseProfiler service)
Description: as §1

PKCalpha = target: T34, PKCalpha (Homo sapiens, UniProt P17252); assay: KinaseProfiler PKCalpha
T34 construct: purchased Millipore, Inc. (KinaseProfiler service)
Description: as §1

PKCiota = target: T35, PKCiota (Homo sapiens, UniProt P41743); assay: KinaseProfiler PKCiota
T35 construct: purchased Millipore, Inc. (KinaseProfiler service)
Description: as §1

Plk3 = target: T36, Plk3 (Homo sapiens, UniProt Q9H4B4); assay: KinaseProfiler Plk3
T36 construct: purchased Millipore, Inc. (KinaseProfiler service)
Description: as §1

Rsk4 = target: T37, Rsk4 (Homo sapiens, UniProt Q9UK32); assay: KinaseProfiler Rsk4
T37 construct: purchased Millipore, Inc. (KinaseProfiler service)
Description: as §1

SRPK1 = target: T38, SRPK1 (Homo sapiens, UniProt Q96SB4); assay: KinaseProfiler SRPK1
T38 construct: purchased Millipore, Inc. (KinaseProfiler service)
Description: as §1

TLK2 = target: T39, TLK2 (Homo sapiens, UniProt Q86UE8); assay: KinaseProfiler TLK2
T39 construct: purchased Millipore, Inc. (KinaseProfiler service)
Description: as §1

TrkB = target: T40, TrkB (Homo sapiens, UniProt Q16620); assay: KinaseProfiler TrkB
T40 construct: purchased Millipore, Inc. (KinaseProfiler service)
Description: as §1

Txk = target: T41, Txk (Homo sapiens, UniProt P42681); assay: KinaseProfiler Txk
T41 construct: purchased Millipore, Inc. (KinaseProfiler service)
Description: as §1

VRK2 = target: T42, VRK2 (Homo sapiens, UniProt Q86Y07); assay: KinaseProfiler VRK2
T42 construct: purchased Millipore, Inc. (KinaseProfiler service)
Description: as §1

ZAP-70 = target: T43, ZAP-70 (Homo sapiens, UniProt P43403); assay: KinaseProfiler ZAP-70
T43 construct: purchased Millipore, Inc. (KinaseProfiler service)
Description: as §1

T9 sequence (P48730 whole entry): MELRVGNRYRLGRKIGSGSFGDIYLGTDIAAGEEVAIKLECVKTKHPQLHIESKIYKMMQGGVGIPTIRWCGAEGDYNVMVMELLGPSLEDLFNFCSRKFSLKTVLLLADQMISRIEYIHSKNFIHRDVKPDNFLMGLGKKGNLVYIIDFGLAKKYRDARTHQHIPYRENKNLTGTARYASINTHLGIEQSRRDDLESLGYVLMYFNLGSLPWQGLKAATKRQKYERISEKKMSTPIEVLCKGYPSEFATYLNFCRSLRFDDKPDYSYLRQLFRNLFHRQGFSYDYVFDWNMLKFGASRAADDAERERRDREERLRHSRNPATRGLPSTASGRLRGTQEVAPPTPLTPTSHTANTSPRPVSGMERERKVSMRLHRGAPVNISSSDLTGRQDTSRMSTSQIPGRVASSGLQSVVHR
T40 sequence (Q16620 32-822): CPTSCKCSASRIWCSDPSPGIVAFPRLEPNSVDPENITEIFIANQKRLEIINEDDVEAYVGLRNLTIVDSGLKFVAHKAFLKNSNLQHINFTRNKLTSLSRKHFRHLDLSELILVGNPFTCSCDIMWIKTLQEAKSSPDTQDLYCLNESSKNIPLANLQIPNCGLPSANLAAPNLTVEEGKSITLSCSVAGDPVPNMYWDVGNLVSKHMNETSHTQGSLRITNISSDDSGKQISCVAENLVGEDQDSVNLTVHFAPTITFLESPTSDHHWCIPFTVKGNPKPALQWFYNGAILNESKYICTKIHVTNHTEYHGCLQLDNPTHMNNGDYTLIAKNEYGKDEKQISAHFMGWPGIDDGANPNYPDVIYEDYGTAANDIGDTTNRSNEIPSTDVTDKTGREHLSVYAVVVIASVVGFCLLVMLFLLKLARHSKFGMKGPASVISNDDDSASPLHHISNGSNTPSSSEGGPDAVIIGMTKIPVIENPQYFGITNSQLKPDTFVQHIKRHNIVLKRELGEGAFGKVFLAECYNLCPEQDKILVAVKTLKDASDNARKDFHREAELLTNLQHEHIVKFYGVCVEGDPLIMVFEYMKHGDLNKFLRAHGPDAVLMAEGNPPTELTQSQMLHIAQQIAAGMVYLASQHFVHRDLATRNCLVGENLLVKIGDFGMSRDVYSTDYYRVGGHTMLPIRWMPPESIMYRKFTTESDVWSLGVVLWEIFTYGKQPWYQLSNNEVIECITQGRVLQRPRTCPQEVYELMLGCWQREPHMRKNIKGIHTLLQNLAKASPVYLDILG
T21 sequence (P49840 whole entry): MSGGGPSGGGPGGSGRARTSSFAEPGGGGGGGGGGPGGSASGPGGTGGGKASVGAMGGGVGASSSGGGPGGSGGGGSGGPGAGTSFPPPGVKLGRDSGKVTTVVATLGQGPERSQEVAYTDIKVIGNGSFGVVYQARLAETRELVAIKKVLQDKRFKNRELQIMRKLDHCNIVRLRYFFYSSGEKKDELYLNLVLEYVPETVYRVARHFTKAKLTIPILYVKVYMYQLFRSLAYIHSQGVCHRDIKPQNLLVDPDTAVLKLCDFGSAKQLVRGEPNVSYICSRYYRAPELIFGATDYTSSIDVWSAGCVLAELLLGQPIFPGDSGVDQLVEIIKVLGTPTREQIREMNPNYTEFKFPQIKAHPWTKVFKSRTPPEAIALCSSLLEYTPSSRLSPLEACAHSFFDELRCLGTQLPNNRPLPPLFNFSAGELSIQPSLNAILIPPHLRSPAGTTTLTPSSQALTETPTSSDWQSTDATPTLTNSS
T3 sequence (Q06187 whole entry): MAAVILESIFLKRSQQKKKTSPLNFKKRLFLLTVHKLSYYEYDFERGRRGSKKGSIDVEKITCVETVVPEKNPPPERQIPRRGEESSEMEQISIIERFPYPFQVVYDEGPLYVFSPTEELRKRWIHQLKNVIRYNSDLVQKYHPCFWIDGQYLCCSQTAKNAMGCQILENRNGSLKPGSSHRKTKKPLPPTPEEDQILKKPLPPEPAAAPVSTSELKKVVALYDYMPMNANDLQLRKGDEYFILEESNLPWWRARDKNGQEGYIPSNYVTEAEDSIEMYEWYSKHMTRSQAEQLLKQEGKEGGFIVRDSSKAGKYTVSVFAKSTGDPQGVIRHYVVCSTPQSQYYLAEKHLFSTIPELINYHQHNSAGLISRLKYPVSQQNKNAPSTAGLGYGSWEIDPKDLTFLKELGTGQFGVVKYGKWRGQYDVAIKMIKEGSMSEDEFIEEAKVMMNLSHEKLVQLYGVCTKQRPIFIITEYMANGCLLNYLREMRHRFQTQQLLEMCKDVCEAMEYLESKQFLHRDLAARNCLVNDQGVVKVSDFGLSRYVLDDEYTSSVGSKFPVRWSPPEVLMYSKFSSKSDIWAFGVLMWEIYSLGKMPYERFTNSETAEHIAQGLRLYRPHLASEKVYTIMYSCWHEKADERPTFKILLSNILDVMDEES
T19 sequence (P22607 23-806): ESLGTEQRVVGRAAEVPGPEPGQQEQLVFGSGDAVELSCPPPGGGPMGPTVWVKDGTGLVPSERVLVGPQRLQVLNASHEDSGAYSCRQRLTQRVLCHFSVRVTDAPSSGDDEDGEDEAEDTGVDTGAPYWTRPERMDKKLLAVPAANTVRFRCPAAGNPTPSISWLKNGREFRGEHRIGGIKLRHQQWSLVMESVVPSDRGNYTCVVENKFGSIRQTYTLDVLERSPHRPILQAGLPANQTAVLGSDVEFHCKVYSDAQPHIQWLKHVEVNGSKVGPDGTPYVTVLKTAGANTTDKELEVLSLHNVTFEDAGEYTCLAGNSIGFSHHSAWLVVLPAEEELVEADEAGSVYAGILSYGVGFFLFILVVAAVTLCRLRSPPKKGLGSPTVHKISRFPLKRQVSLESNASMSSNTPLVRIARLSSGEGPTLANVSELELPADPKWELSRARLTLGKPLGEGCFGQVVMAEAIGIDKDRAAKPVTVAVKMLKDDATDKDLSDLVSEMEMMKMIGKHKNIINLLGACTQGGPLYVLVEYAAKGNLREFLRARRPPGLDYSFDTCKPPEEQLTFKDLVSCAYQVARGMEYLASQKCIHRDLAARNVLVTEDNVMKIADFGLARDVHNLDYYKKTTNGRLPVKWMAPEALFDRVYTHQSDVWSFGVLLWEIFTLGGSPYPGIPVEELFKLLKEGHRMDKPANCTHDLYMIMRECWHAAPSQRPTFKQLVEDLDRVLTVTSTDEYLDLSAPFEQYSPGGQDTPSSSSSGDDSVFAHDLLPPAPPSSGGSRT
T28 sequence (P80192 whole entry): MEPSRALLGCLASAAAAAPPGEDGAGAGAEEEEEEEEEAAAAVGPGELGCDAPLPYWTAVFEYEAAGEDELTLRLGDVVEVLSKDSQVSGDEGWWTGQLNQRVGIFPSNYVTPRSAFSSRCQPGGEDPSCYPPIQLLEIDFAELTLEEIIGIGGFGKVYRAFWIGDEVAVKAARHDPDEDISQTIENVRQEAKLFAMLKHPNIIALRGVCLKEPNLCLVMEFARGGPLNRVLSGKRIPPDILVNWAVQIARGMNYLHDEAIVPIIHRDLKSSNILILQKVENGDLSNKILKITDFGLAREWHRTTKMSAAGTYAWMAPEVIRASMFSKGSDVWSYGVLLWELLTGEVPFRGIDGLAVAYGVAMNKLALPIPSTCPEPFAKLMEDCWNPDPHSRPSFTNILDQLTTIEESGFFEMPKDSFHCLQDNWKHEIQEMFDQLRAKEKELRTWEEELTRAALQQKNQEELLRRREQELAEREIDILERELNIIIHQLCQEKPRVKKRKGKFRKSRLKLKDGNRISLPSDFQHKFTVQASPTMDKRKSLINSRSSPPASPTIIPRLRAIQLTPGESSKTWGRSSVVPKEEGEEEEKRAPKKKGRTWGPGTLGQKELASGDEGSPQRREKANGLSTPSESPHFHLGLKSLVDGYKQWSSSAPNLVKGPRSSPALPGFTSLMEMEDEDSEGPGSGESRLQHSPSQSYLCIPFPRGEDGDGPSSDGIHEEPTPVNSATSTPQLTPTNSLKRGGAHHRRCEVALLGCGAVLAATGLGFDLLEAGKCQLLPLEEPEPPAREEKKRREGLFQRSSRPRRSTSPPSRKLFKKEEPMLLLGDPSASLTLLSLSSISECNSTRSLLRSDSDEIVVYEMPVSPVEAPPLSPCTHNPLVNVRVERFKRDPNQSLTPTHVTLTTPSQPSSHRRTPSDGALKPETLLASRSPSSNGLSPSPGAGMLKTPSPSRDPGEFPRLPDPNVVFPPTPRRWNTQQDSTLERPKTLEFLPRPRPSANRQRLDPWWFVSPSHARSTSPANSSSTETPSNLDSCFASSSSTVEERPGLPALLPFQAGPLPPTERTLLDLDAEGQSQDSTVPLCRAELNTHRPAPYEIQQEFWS
T41 sequence (P42681 whole entry): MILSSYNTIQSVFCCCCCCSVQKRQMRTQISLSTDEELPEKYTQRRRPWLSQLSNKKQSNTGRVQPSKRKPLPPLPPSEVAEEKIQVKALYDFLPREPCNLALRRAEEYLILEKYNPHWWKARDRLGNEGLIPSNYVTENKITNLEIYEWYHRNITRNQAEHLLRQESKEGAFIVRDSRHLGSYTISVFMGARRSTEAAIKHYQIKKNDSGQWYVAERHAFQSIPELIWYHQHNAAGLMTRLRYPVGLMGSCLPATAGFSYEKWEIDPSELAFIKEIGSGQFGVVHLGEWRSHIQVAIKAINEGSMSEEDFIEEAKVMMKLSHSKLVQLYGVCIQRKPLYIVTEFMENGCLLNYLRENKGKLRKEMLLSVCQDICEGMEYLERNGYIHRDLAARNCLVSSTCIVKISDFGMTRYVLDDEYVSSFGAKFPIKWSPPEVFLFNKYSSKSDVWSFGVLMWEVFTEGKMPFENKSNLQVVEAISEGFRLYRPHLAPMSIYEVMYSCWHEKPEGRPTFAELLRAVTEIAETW

With `Cc1c(-c2cnn(C)c2)nn(-c2ccccc2)c1NC(=O)Nc1cc(C(F)(F)F)nn1-c1ccccc1` [Example 3, 1-(1′,4-dimethyl-1-phenyl-1H,1′H-[3,4′-bipyrazol]-5-yl)-3-(1-phenyl-3-(trifluoromethyl)-1H-pyrazol-5-yl)urea] the “Avg POC” value (AKT1) was 103.5 POC, the “Avg POC” value (Axl) was 117 POC and the “Avg POC” value (BTK) was 123 POC. The “Avg POC” value (CAMK1d) was 138 POC, the “Avg POC” value (CAMK2g) was 112 POC and the “Avg POC” value (CDK5/p35) was 110.5 POC. For the same molecule, the “Avg POC” value (CDK7/cyclinH/MAT1) was 120.5 POC, the “Avg POC” value (CHK2) was 126.5 POC and the “Avg POC” value (CK1delta) was 141 POC. The “Avg POC” value (CSK) was 137.5 POC, the “Avg POC” value (DAPK3) was 118.5 POC and the “Avg POC” value (DYRK2) was 92.5 POC. For the same molecule, the “Avg POC” value (EphA7) was 91 POC, the “Avg POC” value (EphA8) was 122 POC and the “Avg POC” value (EphB1) was 122 POC. For the same molecule, the “Avg POC” value (ERK2) was 116 POC, the “Avg POC” value (FAK2) was 103.5 POC and the “Avg POC” value (FGFR2) was 110 POC. For the same molecule, the “Avg POC” value (FGFR3) was 116.5 POC, the “Avg POC” value (Flt3) was 71 POC and the “Avg POC” value (GSK3alpha) was 170 POC. The “Avg POC” value (Hck) was 110.5 POC, the “Avg POC” value (HIPK2) was 101.5 POC and the “Avg POC” value (HIPK3) was 109.5 POC. For the same molecule, the “Avg POC” value (IGF-1R) was 74.5 POC, the “Avg POC” value (JNK1alpha1) was 111.5 POC and the “Avg POC” value (MAP3K5) was 102 POC. For the same molecule, the “Avg POC” value (MLK1) was 100.5 POC, the “Avg POC” value (MST2) was 102.5 POC and the “Avg POC” value (mTOR) was 78.5 POC. The “Avg POC” value (MuSK) was 82.5 POC, the “Avg POC” value (PDGFRalpha) was 106 POC and the “Avg POC” value (Pim-1) was 119.5 POC. The “Avg POC” value (PKCalpha) was 104 POC, the “Avg POC” value (PKCiota) was 69.5 POC and the “Avg POC” value (Plk3) was 115 POC. For the same molecule, the “Avg POC” value (Rsk4) was 99 POC, the “Avg POC” value (SRPK1) was 111 POC and the “Avg POC” value (TLK2) was 108.5 POC. The “Avg POC” value (TrkB) was 95 POC, the “Avg POC” value (Txk) was 139.5 POC and the “Avg POC” value (VRK2) was 96.5 POC. The “Avg POC” value (ZAP-70) was 135 POC.
